From US11279707B2, “NEK inhibitors and methods of use” (DANA-FARBER CANCER INSTITUTE, INC., priority 2017, dated 2022)

Tests used:
Format in all cases: biochemical
CLK = assay: kinase inhibition, CLK
NEK6 = NEK6 (Homo sapiens, UniProt Q9HC98); assay: kinase inhibition, NEK6
DRAK1 = molecular target: T1, DRAK1 (Homo sapiens, UniProt Q9UEE5); assay: kinase inhibition, DRAK1
T1 sequence (Q9UEE5 1-414): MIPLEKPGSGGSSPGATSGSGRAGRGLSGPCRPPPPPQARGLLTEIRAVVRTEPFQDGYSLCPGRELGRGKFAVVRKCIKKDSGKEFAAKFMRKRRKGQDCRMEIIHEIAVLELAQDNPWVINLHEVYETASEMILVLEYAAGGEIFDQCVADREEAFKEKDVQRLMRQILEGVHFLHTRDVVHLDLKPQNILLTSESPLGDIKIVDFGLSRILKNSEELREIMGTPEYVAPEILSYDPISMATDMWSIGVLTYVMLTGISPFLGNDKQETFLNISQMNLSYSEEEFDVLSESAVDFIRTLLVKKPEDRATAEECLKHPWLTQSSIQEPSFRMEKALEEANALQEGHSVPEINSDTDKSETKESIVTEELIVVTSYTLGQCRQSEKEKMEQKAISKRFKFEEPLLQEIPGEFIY

DMPK = molecular target: T2, DMPK (Homo sapiens, UniProt Q09013); assay: kinase inhibition, DMPK
T2 sequence (Q09013 1-629): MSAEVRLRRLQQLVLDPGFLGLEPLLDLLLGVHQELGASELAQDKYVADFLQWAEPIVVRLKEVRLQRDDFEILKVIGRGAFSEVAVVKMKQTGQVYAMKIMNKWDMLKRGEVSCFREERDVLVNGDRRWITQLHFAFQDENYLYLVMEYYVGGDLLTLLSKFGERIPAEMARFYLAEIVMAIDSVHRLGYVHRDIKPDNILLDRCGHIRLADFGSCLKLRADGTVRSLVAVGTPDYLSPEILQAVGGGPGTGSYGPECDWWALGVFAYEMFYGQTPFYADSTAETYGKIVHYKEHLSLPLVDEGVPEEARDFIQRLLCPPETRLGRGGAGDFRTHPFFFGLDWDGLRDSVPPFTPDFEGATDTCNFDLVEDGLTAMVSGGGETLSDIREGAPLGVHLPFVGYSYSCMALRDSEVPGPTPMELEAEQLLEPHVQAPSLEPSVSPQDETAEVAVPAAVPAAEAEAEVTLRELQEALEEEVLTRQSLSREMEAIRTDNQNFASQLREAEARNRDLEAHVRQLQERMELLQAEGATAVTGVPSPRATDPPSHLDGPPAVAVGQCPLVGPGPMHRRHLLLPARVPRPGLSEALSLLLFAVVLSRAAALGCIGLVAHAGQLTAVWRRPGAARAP

NEK2 = molecular target: T3, NEK2 (Homo sapiens, UniProt P51955); assay: kinase inhibition, NEK2
T3 sequence (P51955 1-445): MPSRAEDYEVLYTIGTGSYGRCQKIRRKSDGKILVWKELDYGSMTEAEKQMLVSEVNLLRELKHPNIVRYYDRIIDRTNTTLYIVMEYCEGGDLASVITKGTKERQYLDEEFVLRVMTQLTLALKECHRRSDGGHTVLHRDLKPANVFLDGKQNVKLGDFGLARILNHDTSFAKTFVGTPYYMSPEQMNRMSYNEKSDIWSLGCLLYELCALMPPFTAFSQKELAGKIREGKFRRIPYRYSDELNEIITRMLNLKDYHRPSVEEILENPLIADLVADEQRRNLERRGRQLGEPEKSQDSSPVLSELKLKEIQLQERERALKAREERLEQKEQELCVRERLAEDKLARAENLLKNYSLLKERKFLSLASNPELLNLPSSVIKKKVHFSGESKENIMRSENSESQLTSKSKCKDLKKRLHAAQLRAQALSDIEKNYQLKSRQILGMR

NEK7 = NEK7 (Homo sapiens, UniProt Q8TDX7); assay: kinase inhibition, NEK7
Sequence of NEK7 (Q8TDX7 whole entry, species assumed): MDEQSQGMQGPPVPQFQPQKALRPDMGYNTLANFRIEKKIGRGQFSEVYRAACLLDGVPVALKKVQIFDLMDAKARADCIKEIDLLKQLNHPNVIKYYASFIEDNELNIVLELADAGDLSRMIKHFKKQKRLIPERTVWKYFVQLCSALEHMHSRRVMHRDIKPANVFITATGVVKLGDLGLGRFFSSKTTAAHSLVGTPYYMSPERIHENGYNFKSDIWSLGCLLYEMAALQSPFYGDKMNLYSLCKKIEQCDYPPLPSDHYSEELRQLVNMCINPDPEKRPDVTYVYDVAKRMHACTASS

GRK4 = GRK4 (Homo sapiens, UniProt P32298); assay: kinase inhibition, GRK4
Sequence of GRK4 (P32298 whole entry, species assumed): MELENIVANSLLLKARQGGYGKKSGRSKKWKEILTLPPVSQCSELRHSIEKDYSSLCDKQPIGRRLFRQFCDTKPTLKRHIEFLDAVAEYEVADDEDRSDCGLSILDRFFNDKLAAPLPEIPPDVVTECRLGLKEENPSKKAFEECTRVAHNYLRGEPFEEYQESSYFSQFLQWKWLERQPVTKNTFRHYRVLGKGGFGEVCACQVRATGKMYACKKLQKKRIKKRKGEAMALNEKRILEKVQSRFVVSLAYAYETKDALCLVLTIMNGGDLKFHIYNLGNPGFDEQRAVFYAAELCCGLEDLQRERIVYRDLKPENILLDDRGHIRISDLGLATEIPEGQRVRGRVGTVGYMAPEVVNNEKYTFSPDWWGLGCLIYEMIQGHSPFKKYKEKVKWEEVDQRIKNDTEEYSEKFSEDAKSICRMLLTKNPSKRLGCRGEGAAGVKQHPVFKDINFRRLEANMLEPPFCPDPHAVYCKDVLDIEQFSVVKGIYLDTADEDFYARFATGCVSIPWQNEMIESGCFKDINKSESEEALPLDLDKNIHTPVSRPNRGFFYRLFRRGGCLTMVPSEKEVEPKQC

Sequence of NEK6 (Q9HC98 whole entry, species assumed): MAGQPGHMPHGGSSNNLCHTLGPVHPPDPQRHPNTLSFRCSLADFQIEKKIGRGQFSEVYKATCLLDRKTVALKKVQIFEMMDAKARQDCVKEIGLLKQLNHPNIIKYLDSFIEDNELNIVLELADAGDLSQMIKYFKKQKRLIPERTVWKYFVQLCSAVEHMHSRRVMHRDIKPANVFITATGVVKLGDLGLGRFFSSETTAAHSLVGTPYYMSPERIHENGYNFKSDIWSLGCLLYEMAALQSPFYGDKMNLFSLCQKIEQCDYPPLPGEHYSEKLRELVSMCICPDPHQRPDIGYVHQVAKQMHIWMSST

| IC50 (CLK) [µM] | IC50 (NEK6) [µM] | IC50 (DRAK1) [µM] | IC50 (DMPK) [µM] | IC50 (NEK2) [µM] | IC50 (NEK7) [µM] | IC50 (GRK4) [µM] | Compound |
| --- | --- | --- | --- | --- | --- | --- | --- |
| 1 to 5 | 0.05 to 0.25 | 0.05 to 0.25 | ≥ 5 | 0.05 to 0.25 | 0.05 to 0.25 |  | COc1cc(N2CCN(C)CC2)ccc1Nc1ncc2c(n1)n1c(cc3ccccc31)c(=O)n2C [Compound I-3] |
| 1 to 5 | ≥ 5 | 0.25 to 1 | ≥ 5 | 0.05 to 0.25 | 1 to 5 |  | CN1CCN(c2ccc(Nc3ncc4c(n3)n3c(cc5ccccc53)c(=O)n4C)cc2C(F)(F)F)CC1 [Compound I-5] |
| 0.05 to 0.25 | 1 to 5 | 1 to 5 | 0.25 to 1 | 0.05 to 0.25 | 1 to 5 |  | COc1cc(C(=O)N2CCC(N3CCN(C)CC3)CC2)ccc1Nc1ncc2c(n1)n1c(cc3ccccc31)c(=O)n2C [Compound I-4] |
| 0.05 to 0.25 | 0.05 to 0.25 | 0.05 to 0.25 | 0.05 to 0.25 | ≤ 0.05 | 0.25 to 1 | 1 to 5 | CN1CCN(c2ccc(Nc3ncc4c(n3)n3c(cc5ccccc53)c(=O)n4C)cc2)CC1 [Compound I-1] |
| 0.05 to 0.25 | 0.25 to 1 | 0.25 to 1 | 0.25 to 1 | ≤ 0.05 | 0.05 to 0.25 |  | COc1cc(C2CCN(C)CC2)ccc1Nc1ncc2c(n1)n1c(cc3ccccc31)c(=O)n2C [Compound I-6] |
| 0.25 to 1 | 0.25 to 1 | 0.05 to 0.25 | ≥ 5 | 0.05 to 0.25 | 0.05 to 0.25 |  | COc1cc(N2CCC(O)CC2)ccc1Nc1ncc2c(n1)n1c(cc3ccccc31)c(=O)n2C [Compound I-2] |
